Test results: patent publication US20090048301A1 (IMCLONE SYSTEMS INCORPORATED, priority 2003, published 2009)

tested on: bovine tubulin; experiment: In vitro tubulin polymerization assay (turbidity at 340 nm); type: biochemical; conditions: 10 μM compound, 30 minute data point, vs 1% DMSO control
Method in brief: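 Bovine tubulin (97%, <3% MAPs) at 3 mg/ml final in G-PEM pH 7 with 1 mM GTP and 5% glycerol, added cold to compound wells at 37° C (1% DMSO final). A340 read each minute for 30 min; percent inhibition from 30-min point versus DMSO control.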

| Structure (SMILES) | Tubulin Assay: percent inhibition at 10 μM based on 30 minute data [%] |
| --- | --- |
| FC(F)(F)Oc1cccc(-c2nnc(-c3ccccc3NCc3ccc4c(c3)OCCO4)[nH]2)c1 [Compound 142, (2,3-Dihydro-benzo[1,4]dioxin-6-ylmethyl)-{2-[5-(3-trifluoromethoxy-phenyl)-4H-[1,2,4]triazol-3-yl]-phenyl}-amine] | 20 |
| COc1cc(CNc2ccccc2-c2nnc(-c3cccc(OC(F)(F)F)c3)[nH]2)cc(OC)c1 [Compound 143, (3,5-Dimethoxy-benzyl)-{2-[5-(3-trifluoromethoxy-phenyl)-4H-[1,2,4]triazol-3-yl]-phenyl}-amine] | 46 |
| FC(F)(F)Oc1cccc(-c2nnc(-c3ccccc3NCc3ccc4[nH]cnc4c3)[nH]2)c1 [Compound 144, (1H-Benzoimidazol-5-ylmethyl)-{2-[5-(3-trifluoromethoxy-phenyl)-4H-[1,2,4]triazol-3-yl]-phenyl}-amine] | 86 |
| Brc1ccc(-c2nnc(-c3ccccc3NCc3ccc4cn[nH]c4c3)[nH]2)cc1 [Compound 146, {2-[5-(4-Bromo-phenyl)-4H-[1,2,4]triazol-3-yl]-phenyl}-(1H-indazol-6-ylmethyl)-amine] | 39 |
| Brc1ccc(-c2nnc(-c3ccccc3NCc3ccc4[nH]cnc4c3)[nH]2)cc1 [Compound 147, (1H-Benzoimidazol-5-ylmethyl)-{2-[5-(4-bromo-phenyl)-4H-[1,2,4]triazol-3-yl]-phenyl}-amine] | 43 |
| COc1cccc(-c2nnc(-c3ccccc3NCc3ccc4cn[nH]c4c3)[nH]2)c1 [Compound 149, (1H-Indazol-6-ylmethyl)-{2-[5-(3-methoxy-phenyl)-4H-[1,2,4]triazol-3-yl]-phenyl}-amine] | 26 |
| FC(F)(F)c1cccc(-c2nnc(-c3ccccc3NCc3ccc4c(c3)OCCO4)[nH]2)c1 [Compound 150, (2,3-Dihydro-benzo[1,4]dioxin-6-ylmethyl)-{2-[5-(3-trifluoromethyl-phenyl)-4H-[1,2,4]triazol-3-yl]-phenyl}-amine] | 24 |
| COc1cc(CNc2ccccc2-c2nnc(-c3cccc(Br)c3)[nH]2)cc(OC)c1 [Compound 151, {2-[5-(3-Bromo-phenyl)-4H-[1,2,4]triazol-3-yl]-phenyl}-(3,5-dimethoxy-benzyl)-amine] | 42 |
| FC(F)(F)c1cccc(-c2nnc(-c3ccccc3NCc3ccc4c(c3)OCO4)[nH]2)c1 [Compound 152, Benzo[1,3]dioxol-5-ylmethyl-{2-[5-(3-trifluoromethyl-phenyl)-4H-[1,2,4]triazol-3-yl]-phenyl}-amine] | 73 |
| CS(=O)(=O)c1ccc(-c2nnc(-c3ccc(C(F)(F)F)cc3NCc3ccncc3)[nH]2)cc1 [Compound 153, {2-[5-(4-Methanesulfonyl-phenyl)-4H-[1,2,4]triazol-3-yl]-5-trifluoromethyl-phenyl}-pyridin-4-ylmethyl-amine] | 54 |
| COc1ccc(CNc2ncccc2-c2nnc(Nc3ccc4c(c3)OCO4)o2)cc1OC [Compound 158, {3-[5-(Benzo[1,3]dioxol-5-ylamino)-[1,3,4]oxadiazol-2-yl]-pyridin-2-yl}-(3,4-dimethoxy-benzyl)-amine] | 90 |
| COc1cc(Nc2nnc(-c3cccnc3NCc3ccc(F)c(F)c3)o2)cc(OC)c1OC [Compound 167, (3,4-Difluoro-benzyl)-{3-[5-(3,4,5-trimethoxy-phenylamino)-[1,3,4]oxadiazol-2-yl]-pyridin-2-yl}-amine] | 99 |
| Fc1cccc(CNc2ncccc2-c2nnc(Nc3ccc4c(c3)OCO4)o2)c1 [Compound 171, {3-[5-(Benzo[1,3]dioxol-5-ylamino)-[1,3,4]oxadiazol-2-yl]-pyridin-2-yl}-(3-fluoro-benzyl)-amine] | 91 |
| c1cnc(NCC2CCCO2)c(-c2nnc(Nc3ccc4c(c3)OCO4)o2)c1 (stereo not shown) [Compound 174, {3-[5-(Benzo[1,3]dioxol-5-ylamino)-[1,3,4]oxadiazol-2-yl]-pyridin-2-yl}-(tetrahydro-furan-2-ylmethyl)-amine] | 64 |
| COc1cc(CNc2ncccc2-c2nnc(Nc3cccc(F)c3)o2)cc(OC)c1 [Compound 184, (3,5-Dimethoxy-benzyl)-{3-[5-(3-fluoro-phenylamino)-[1,3,4]oxadiazol-2-yl]-pyridin-2-yl}-amine] | 23 |
| COc1ccc(CNc2ncccc2-c2nnc(Nc3cc(OC)c(OC)c(OC)c3)o2)cc1 [Compound 188, (4-Methoxy-benzyl)-{3-[5-(3,4,5-trimethoxy-phenylamino)-[1,3,4]oxadiazol-2-yl]-pyridin-2-yl}-amine] | 56 |

| Structure (SMILES) | Tubulin Assay: percent inhibition at 10 μM based on 30 minute data [%] |
| --- | --- |
| NS(=O)(=O)c1cccc(Nc2ncccc2-c2nnc(Nc3ccc4c(c3)OCCO4)o2)c1 [Compound 191, 3-{3-[5-(2,3-Dihydro-benzo[1,4]dioxin-6-ylamino)-[1,3,4]oxadiazol-2-yl]-pyridin-2-ylamino}-benzenesulfonamide] | 28 |
| c1cncc(CCNc2ncccc2-c2nnc(Nc3ccc4c(c3)OCO4)o2)c1 [Compound 200, {3-[5-(Benzo[1,3]dioxol-5-ylamino)-[1,3,4]oxadiazol-2-yl]-pyridin-2-yl}-(2-pyridin-3-yl-ethyl)-amine] | 68 |
| c1cncc(CCNc2ncccc2-c2nnc(Nc3ccc4c(c3)OCCO4)o2)c1 [Compound 201, {3-[5-(2,3-Dihydro-benzo[1,4]dioxin-6-ylamino)-[1,3,4]oxadiazol-2-yl]-pyridin-2-yl}-(2-pyridin-3-yl-ethyl)-amine] | 23 |
| COc1cc(Nc2nnc(-c3cccnc3NCCc3cccnc3)o2)cc(OC)c1OC [Compound 204, (2-Pyridin-3-yl-ethyl)-{3-[5-(3,4,5-trimethoxy-phenylamino)-[1,3,4]oxadiazol-2-yl]-pyridin-2-yl}-amine] | 28 |
| c1cnc(OCc2ccc3c(c2)OCO3)c(-c2nnc(Nc3ccc4c(c3)OCO4)o2)c1 [Compound 208, Benzo[1,3]dioxol-5-yl-{5-[2-(benzo[1,3]dioxol-5-ylmethoxy)-pyridin-3-yl]-[1,3,4]oxadiazol-2-yl}-amine] | 44 |
| Brc1cnn(-c2ncccc2-c2nnc(Nc3ccc4c(c3)OCCO4)o2)c1 [Compound 211, {5-[2-(4-Bromo-pyrazol-1-yl)-pyridin-3-yl]-[1,3,4]oxadiazol-2-yl}-(2,3-dihydro-benzo[1,4]dioxin-6-yl)-amine] | 73 |
| CS(=O)(=O)c1ccc(-c2nnc(-c3cccnc3NCc3ccc(F)cc3)o2)cc1 [Compound 212, (4-Fluoro-benzyl)-{3-[5-(4-methanesulfonyl-phenyl)-[1,3,4]oxadiazol-2-yl]-pyridin-2-yl}-amine] | 38 |
| COc1cc(Nc2ncccc2-c2nnc(-c3ccc(S(C)(=O)=O)cc3)o2)cc(OC)c1 [Compound 213, (3,5-Dimethoxy-phenyl)-{3-[5-(4-methanesulfonyl-phenyl)-[1,3,4]oxadiazol-2-yl]-pyridin-2-yl}-amine] | 30 |
| CS(=O)(=O)c1ccc(-c2nnc(-c3cccnc3NCc3cccc(F)c3)o2)cc1 [Compound 214, (3-Fluoro-benzyl)-{3-[5-(4-methanesulfonyl-phenyl)-[1,3,4]oxadiazol-2-yl]-pyridin-2-yl}-amine] | 52 |
| c1ccc(-c2nnc(Nc3ccc4c(c3)OCCO4)o2)c(NCc2ncc[nH]2)c1 [Compound 220, (2,3-Dihydro-benzo[1,4]dioxin-6-yl)-(5-{2-[(1H-imidazol-2-ylmethyl)-amino]-phenyl}-[1,3,4]oxadiazol-2-yl)-amine] | 79 |
| c1ccc(-c2nnc(Nc3ccc4c(c3)OCCO4)o2)c(NCc2cnccn2)c1 [Compound 221] | 80 |
| c1ccc(-c2nnc(Nc3ccc4c(c3)OCCO4)o2)c(NCc2ccc3[nH]ncc3c2)c1 [Compound 222, (2,3-Dihydro-benzo[1,4]dioxin-6-yl)-(5-{2-[(1H-indazol-5-ylmethyl)-amino]-phenyl}-[1,3,4]oxadiazol-2-yl)-amine] | 95 |
| c1ccc(-c2nnc(Nc3ccc4c(c3)OCCO4)o2)c(NCc2cncnc2)c1 [Compound 226, (2,3-Dihydro-benzo[1,4]dioxin-6-yl)-(5-{2-[(pyrimidin-5-ylmethyl)-amino]-phenyl}-[1,3,4]oxadiazol-2-yl)-amine] | 94 |
| c1ccc(-c2nnc(Nc3ccc4c(c3)OCCO4)o2)c(NCc2ccc3ncccc3c2)c1 [Compound 227, (2,3-Dihydro-benzo[1,4]dioxin-6-yl)-(5-{2-[(quinolin-6-ylmethyl)-amino]-phenyl}-[1,3,4]oxadiazol-2-yl)-amine] | 99 |
| CN(C)c1ccc(-c2nnc(Nc3ccc4c(c3)OCCO4)o2)c(NCc2cccnc2)c1 [Compound 229, (2,3-Dihydro-benzo[1,4]dioxin-6-yl)-(5-{4-dimethylamino-2-[(pyridin-3-ylmethyl)-amino]-phenyl}-[1,3,4]oxadiazol-2-yl)-amine] | 32 |
